Here are results for 25 compounds from patent US20260008780A1, “SUBSTITUTED 3,4-DIHYDROISOQUINOLIN-1(2H)-ONE DERIVATIVES AND RELATED USES” (NodThera Limited, priority 2022, published 2026).

This test concerns IL-1β release upon NLRP3 activation in peripheral blood mononuclear cells (PBMC). Nature of the test: PBMC IC50 Determination Assay. The format is cell-based. As to conditions: Homo sapiens; PBMC from buffy coats, LPS 3 h, compound 30 min, then ATP (5 mM) or nigericin (10 μM) 1 h; IL-1β in media by ELISA (Protocol A) or HTRF (Protocol B). As for the experimental part: The compounds of the present disclosure were tested for their inhibitory activity against IL-1β release upon NLRP3 activation in peripheral blood mononuclear cells (PBMC).
Protocol A. PBMC were isolated from buffy coats by density gradient centrifugation on Histopaque-1077 (Sigma, cat no. 10771). Isolated cells were seeded into the wells of a 96-well plate and incubated for 3 h with lipopolysaccharide (LPS). Following medium exchange, the compounds of the present disclosure were added (a single compound per well) and the cells were incubated for 30 min. Next, the cells were stimulated either with ATP (5 mM) or nigericin (10 μM) for 1 h and the cell culture media from the wells were collected for further analysis.
The release of IL-1β into the media was determined by a quantitative detection of IL-1β in the media using an IL-1p enzyme-linked immunosorbent assay (ELISA) Ready-SET-Go!, eBioscience cat. No. 88-7261-88. Briefly, in a first step, high affinity binding plates (Corning, Costar 9018 or NUNC Maxisorp Cat No. 44-2404) were coated overnight at 4° C. with specific capture antibody included in the kit (anti-human IL-1β ref 14-7018-68). Subsequently, plates were blocked with blocking buffer for 1 h at room temperature (rt) and after washing with a buffer (PBS with 0.05% Tween-20) incubated with protein standard and culture media. After 2 h of incubation at rt, plates were washed and incubated with biotinylated detection antibody included in the kit (anti-human IL-1β Biotin ref. 33-7110-68) for 1 h at rt. Plates were washed and incubated with HRP-streptavidin for 30 min at rt and washed again. The signal was developed after addition of 3,3′,5,5′-tetramethylbenzidine-peroxidase (TMB) until colour appeared and the reaction was stopped by 2 M H2SO4. A microplate spectrophotometer (BioTek) was used to detect signals with 450 nm. The detection range of IL-1β ELISA was […].
Protocol B. PBMC were isolated from buffy coats by density gradient centrifugation on Histopaque-1077 (Sigma, cat no. 10771). Isolated cells were seeded into the wells (280,000 cells/well) of a 96-well plate and incubated for 3 h with lipopolysaccharide (LPS, 1 μg/mL diluted 1000× from a 1 mg/mL stock solution). The compounds of the present disclosure were added (a single compound per well) and the cells were incubated for 30 min. Next, the cells were stimulated with ATP (5 mM final concentration diluted 20× from a 100 mM stock solution) for 1 h and the cell culture media from the wells were collected for further analysis.
The release of IL-1β into the media was determined by quantitative detection of IL-1β in the media using HTRF®, CisBio cat. No. 62HIL1BPEH. Briefly, cell culture supernatant were dispensed directly into the assay plate containing antibodies labelled with the HTRF® donor and acceptor. A microplate spectrophotometer (BMG) was used to detect signals at 655 nm and 620 nm. The detection range of IL-1β HTRF® was 39-6500 μg/mL.
For orientation: An ELISA detects its analyte on a solid surface through an enzyme-linked reagent.
As a reminder, the IC50 is the midpoint of a concentration-inhibition curve. A higher IC50 goes with lower potency. Regarding `CCc1cc2c(s1)C(=O)N(CC(=O)Nc1ccc3c(c1)[nH]c(=O)n3C)CC21CC1` [Compound 44, 2-(2′-Ethyl-7′-oxo-5′H-spiro[cyclopropane-1,4′-thieno[2,3-c]pyridin]-6′(7′H)-yl)-N-(1-methyl-2-oxo-2,3-dihydro-1H-benzo[d]imidazol-5-yl)acetamide], the IC50 was 1000 to 3000 nM.

Compound `CCc1cc2c(s1)C(=O)N(CC(=O)Nc1ccc3nncn3n1)CC21CC1` [Compound 45, 2-{2′-Ethyl-7′-oxo-6′,7′-dihydro-5′H-spiro[cyclopropane-1,4′-thieno[2,3-c]pyridin]-6′-yl}-N-{[1,2,4]triazolo[4,3-b]pyridazin-6-yl}acetamide] came in with an IC50 of 100 to 1000 nM.

In turn, `CCc1cc2c(s1)C(=O)N(CC(=O)Nc1ncco1)CC21CC1` [Compound 46, 2-{2′-Ethyl-7′-oxo-6′,7′-dihydro-5′H-spiro[cyclopropane-1,4′-thieno[2,3-c]pyridin]-6′-yl}-N-(1,3-oxazol-2-yl)acetamide] came in with an IC50 of 100 to 1000 nM.

In turn, `CCc1cc2c(s1)C(=O)N(CC(=O)Nc1ccc3nncn3c1)CC21CC1` [Compound 47, 2-{2′-Ethyl-7′-oxo-6′,7′-dihydro-5′H-spiro[cyclopropane-1,4′-thieno[2,3-c]pyridin]-6′-yl}-N-{[1,2,4]triazolo[4,3-a]pyridin-6-yl}acetamide] yielded a 50% inhibitory concentration (IC50) of 1000 to 3000 nM.

Turning to `CCc1cc2c(s1)C(=O)N(CC(=O)Nc1ccc(OC)nc1)CC21CC1` [Compound 48, 2-{2′-Ethyl-7′-oxo-6′,7′-dihydro-5′H-spiro[cyclopropane-1,4′-thieno[2,3-c]pyridin]-6′-yl}-N-(6-methoxypyridin-3-yl)acetamide], the 50% inhibitory concentration (IC50) is 3000 to 10000 nM.

In turn, `CCc1cc2c(s1)C(=O)N(CC(=O)Nc1ccc3[nH]c(=O)n(C)c3c1)CC21CC1` [Compound 49, 2-{2′-Ethyl-7′-oxo-6′,7′-dihydro-5′H-spiro[cyclopropane-1,4′-thieno[2,3-c]pyridin]-6′-yl}-N-(3-methyl-2-oxo-2,3-dihydro-1H-1,3-benzodiazol-5-yl)acetamide] came in with an IC50 of 3000 to 10000 nM.

For the compound `CCc1cc2c(s1)C(=O)N(CC(=O)Nc1ccncn1)CC21CC1` [Compound 50, 2-{2′-Ethyl-7′-oxo-6′,7′-dihydro-5′H-spiro[cyclopropane-1,4′-thieno[2,3-c]pyridin]-6′-yl}-N-(pyrimidin-4-yl)acetamide], the IC50 was 100 to 1000 nM.

The compound `CCc1cc2c(s1)C(=O)N(CC(=O)Nc1nccc(=O)[nH]1)CC21CC1` [Compound 51, 2-{2′-Ethyl-7′-oxo-6′,7′-dihydro-5′H-spiro[cyclopropane-1,4′-thieno[2,3-c]pyridin]-6′-yl}-N-(6-oxo-1,6-dihydropyrimidin-2-yl)acetamide] displayed an IC50 of 3000 to 10000 nM.

Regarding `CCc1cc2c(s1)C(=O)N(CC(=O)Nc1ncc(-n3cccn3)cn1)CC21CC1` [Compound 52, 2-{2′-Ethyl-7′-oxo-6′,7′-dihydro-5′H-spiro[cyclopropane-1,4′-thieno[2,3-c]pyridin]-6′-yl}-N-[5-(1H-pyrazol-1-yl)pyrimidin-2-yl]acetamide], the IC50 was 1000 to 3000 nM.

With `CCc1cc2c(s1)C(=O)N(CC(=O)Nc1ncc([N+](=O)[O-])cn1)CC21CC1` [Compound 53, 2-{2′-Ethyl-7′-oxo-6′,7′-dihydro-5′H-spiro[cyclopropane-1,4′-thieno[2,3-c]pyridin]-6′-yl}-N-(5-nitropyrimidin-2-yl)acetamide], the IC50 lay within 100 to 1000 nM.

Consider `CCc1cc2c(s1)C(=O)N(CC(=O)Nc1ncc(Cl)cn1)CC21CC1` [Compound 54, N-(5-Chloropyrimidin-2-yl)-2-{2′-ethyl-7′-oxo-6′,7′-dihydro-5′H-spiro[cyclopropane-1,4′-thieno[2,3-c]pyridin]-6′-yl}acetamide], for which the IC50 was in the range of 100 to 1000 nM.

`CCc1cc2c(s1)C(=O)N(CC(=O)Nc1ccc(C#N)cn1)CC21CC1` [Compound 55, N-(5-Cyanopyridin-2-yl)-2-{2′-ethyl-7′-oxo-6′,7′-dihydro-5′H-spiro[cyclopropane-1,4′-thieno[2,3-c]pyridin]-6′-yl}acetamide] displayed an IC50 of 1000 to 3000 nM.

`CCc1cc2c(s1)C(=O)N(CC(=O)Nc1ncc(C(F)(F)F)cc1F)CC21CC1` [Compound 56, 2-{2′-Ethyl-7′-oxo-6′,7′-dihydro-5′H-spiro[cyclopropane-1,4′-thieno[2,3-c]pyridin]-6′-yl}-N-[3-fluoro-5-(trifluoromethyl)pyridin-2-yl]acetamide] registered an IC50 of 1000 to 3000 nM.

`CCc1cc2c(s1)C(=O)N(CC(=O)Nc1ncc(Cl)cc1F)CC21CC1` [Compound 57, N-(5-Chloro-3-fluoropyridin-2-yl)-2-{2′-ethyl-7′-oxo-6′,7′-dihydro-5′H-spiro[cyclopropane-1,4′-thieno[2,3-c]pyridin]-6′-yl}acetamide] showed an IC50 of 1000 to 3000 nM.

The compound `O=C(CN1CC2(CC2)c2oc(C3CC3)cc2C1=O)Nc1ccc2nncn2c1` [Compound 58, 2-{2′-Cyclopropyl-4′-oxo-5′,6′-dihydro-4′H-spiro[cyclopropane-1,7′-furo[3,2-c]pyridin]-5′-y}—N-{[1,2,4]triazolo[4,3-a]pyridin-6-yl}acetamide] displayed an IC50 of 3000 to 10000 nM.

Turning to `O=C(CN1CC2(CC2)c2oc(C3CC3)cc2C1=O)Nc1ccc2nncn2n1` [Compound 59, 2-{2′-Cyclopropyl-4′-oxo-5′,6′-dihydro-4′H-spiro[cyclopropane-1,7′-furo[3,2-c]pyridin]-5′-yl}-N-{[1,2,4]triazolo[4,3-b]pyridazin-6-yl}acetamide], the IC50 lay in the range of 100 to 1000 nM.

Take `CCc1cc2c(s1)C(=O)N(CC(=O)Nc1ncc(N)cn1)CC21CC1` [Compound 60, N-(5-Aminopyrimidin-2-yl)-2-{2′-ethyl-7′-oxo-6′,7′-dihydro-5′H-spiro[cyclopropane-1,4′-thieno[2,3-c]pyridin]-6′-yl}acetamide]: the IC50 fell in the range of 100 to 1000 nM.

With `CCc1cc2c(s1)C(=O)N(CC(=O)Nc1ncc(OC)cn1)CC21CC1` [Compound 61, 2-{2′-Ethyl-7′-oxo-6′,7′-dihydro-5′H-spiro[cyclopropane-1,4′-thieno[2,3-c]pyridin]-6′-yl}-N-(5-methoxypyrimidin-2-yl)acetamide], the IC50 was 100 to 1000 nM.

Consider `CCc1cc2c(s1)C(=O)N(CC(=O)Nc1ncc(O)cn1)CC21CC1` [Compound 62, 2-{2′-Ethyl-7′-oxo-6′,7′-dihydro-5′H-spiro[cyclopropane-1,4′-thieno[2,3-c]pyridin]-6′-yl}-N-(5-hydroxypyrimidin-2-yl)acetamide], for which the IC50 fell in the range of 100 to 1000 nM.

Take `CCc1cc2c(s1)C(=O)N(CC(=O)Nc1ncc(C#N)cn1)CC21CC1` [Compound 63, N-(5-Cyanopyrimidin-2-yl)-2-{2′-ethyl-7′-oxo-6′,7′-dihydro-5′H-spiro[cyclopropane-1,4′-thieno[2,3-c]pyridin]-6′-yl}acetamide]: the IC50 was in the range of 100 to 1000 nM.

Compound `CC1CN(CC(=O)Nc2ncccn2)C(=O)c2cc(C3CC3)oc21` (stereo not shown) [Compound 65, 2-(2-Cyclopropyl-7-methyl-4-oxo-6,7-dihydrofuro[3,2-c]pyridin-5(4H)-yl)-N-(pyrimidin-2-yl)acetamide] yielded an IC50 of 100 to 1000 nM.

The compound `CCc1cc2c(s1)C(=O)N(CC(=O)Nc1ncc(C#N)cc1F)CC21CC1` [Compound 66, N-(5-cyano-3-fluoropyridin-2-yl)-2-(2′-ethyl-7′-oxo-5′H-spiro[cyclopropane-1,4′-thieno[2,3-c]pyridin]-6′(7′H)-yl)acetamide] had an IC50 of 100 to 1000 nM.

Compound `CC1CN(CC(=O)Nc2ncccn2)C(=O)c2cc3scnc3n21` (stereo not shown) [Compound 67, 2-(5-Methyl-8-oxo-5,6-dihydrothiazolo[5′,4′:4,5]pyrrolo[1,2-a]pyrazin-7(8H)-yl)-N-(pyrimidin-2-yl)acetamide] yielded an IC50 of 100 to 1000 nM.

In the case of `CCc1cc2c(s1)C(=O)N(CC(=O)Nc1ncc3[nH]c(=O)n(C)c3n1)CC21CC1` [Compound 68, 2-(2′-Ethyl-7′-oxo-5′H-spiro[cyclopropane-1,4′-thieno[2,3-c]pyridin]-6′(7′H)-yl)-N-(9-methyl-8-oxo-8,9-dihydro-7H-purin-2-yl)acetamide], the IC50 was 3000 to 10000 nM.

`CCc1cc2c(s1)C(C)CN(CC(=O)Nc1ncccn1)C2=O` (stereo not shown) [Compound 69] showed an IC50 of 1000 to 3000 nM.
